From EP4563579A1, “MACROCYCLIC EGFR INHIBITOR, AND PREPARATION METHOD THEREFOR AND PHARMACEUTICAL USE THEREOF” (Abbisko Therapeutics Co., Ltd., priority 2022, dated 2024)

Tests used:
[1] = system: Ba/F3 EGFR-L858R-T790M-C797S (LTC); test: Cell proliferation assay (CellTiter-Glo), Ba/F3 LTC; format: cell-based; settings: Mus musculus, BaF3; Ba/F3 EGFR-L858R-T790M-C797S cells, 72 hour incubation, CTG readout
In short: (§1)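 Cells seeded overnight, then exposed 72 h at 37 °C, 5% CO2 to nine 3.16-fold dilutions (top final 10 µM, 0.1% DMSO), triplicate wells. Viability read by CellTiter-Glo luminescence, with a T0 plate read at dosing; IC50 (nM) by non-linear sigmoidal regression.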

[2] = system: Ba/F3 EGFR-DEL19-C797S (DC); test: Cell proliferation assay (CellTiter-Glo), Ba/F3 DC; format: cell-based; settings: Mus musculus, BaF3; Ba/F3 EGFR-DEL19-C797S cells, 72 hour incubation, CTG readout
Description: (§2) • DMEM Medium (Gibco, Cat#11965118) • RPMI1640 Medium (Gibco, Cat#11875119) • Fetal Bovine Serum (FBS) (GBICO, Cat#10099-141) • CellTiter-Glo® Luminescent Cell Viability Assay Kit (Promega, Cat#G7572) 96-well, Black, Clear Flat Bottom Plate (Corning®, Cat# 3603)
(§3) • SpectraMax Multimode Microplate Reader MD, 2104-0010A; • CO2 Incubator, Thermo Scientific 3100 Series; • Biosafety Cabinet, Thermo Scientific, 1300 Series A2; • Inverted Microscope, Olympus, CKX41SF; • Siemens Refrigerator, KK25E76TI.
(§4) • 1. Cell Culture and Inoculation: • (1) Harvest cells in a logarithmic growth phase and count the cells using a […]. Test cell viability using a trypan blue exclusion method to ensure that cell viability is above 90%. • (2) Adjust the cell concentration to desired final density; and add 90 µL of cell suspension to a 96-well plate. • (3) Incubate the cells overnight at 37°C, under 5% CO2 and 95% humidity in the 96-well plate. • 2. T0 Reference Data: • (1) Add 10 µL PBS to each well of the T0 plate containing cells. • (2) Thaw the CTG reagent and equilibrate the plate to room temperature for 30 minutes. • (3) Add an equal volume of CTG solution to each well. • (4) Lyse cells by shaking on an orbital shaker for 5 minutes. • (5) Leave the plate at room temperature for 20 minutes to stabilize the luminescence signal. • (6) Read the T0 […]. • 3. Compound Dilution and Addition • (1) Add a corresponding volume of DMSO to a corresponding compound powder according to the compound information sheet to prepare a 10 mM stock solution. • (2) Prepare 1000-fold and 3.16-fold diluted compound solutions. • (3) Dilute the 1000× diluted compound solution 100-fold with PBS to prepare a 10-fold compound solution, with a maximum concentration of 10 µM, nine concentrations and 3.16-fold dilution. Then add 10 µL of the drug solution concentration to individual wells of the 96-well plate seeded with cells. Test each compound concentration in triplicate wells, and the final DMSO concentration is 0.1%. • (4) Incubate the cells in the 96-well plate containing the drug compounds at 37°C, under 5% CO2, and 95% humidity for an additional 72 hour period prior to performing the CTG analysis. • 4. Fluorescence Signal Reading • (1) Thaw the CTG reagent and equilibrate the plate to room temperature for 30 minutes. • (2) Add an equal volume of CTG solution to each well. • (3) Lyse cells by shaking on an orbital shaker for 5 minutes. • (4) Leave the plate at room temperature for 20 minutes to stabilize the […]. • (5) Read fluorescence value. • 5. Data Processing
(§5) Analyze the data by using GraphPad Prism 7.0 software, and use Non-linear S-curve regression to fit the dose-response curves, to calculate the IC50 values (in nM). The specific experiment results are presented in Table 1: [formula] Table 1: Biology Test Results

A431 WT = test: Cell proliferation assay (CellTiter-Glo), A431 WT; format: cell-based; settings: Homo sapiens, A-431; A431 WT cells, 72 hour incubation, CTG readout
In short: as §1

[3] = system: Ba/F3 EGFR-L858R-C797S (LC); test: Cell proliferation assay (CellTiter-Glo), Ba/F3 LC; format: cell-based; settings: Mus musculus, BaF3; Ba/F3 EGFR-L858R-C797S cells, 72 hour incubation, CTG readout
In short: as §1

[4] = system: Ba/F3 EGFR-DEL19-T790M-C797S (DTC); test: Cell proliferation assay (CellTiter-Glo), Ba/F3 DTC; format: cell-based; settings: Ba/F3 EGFR-DEL19-T790M-C797S cells, 72 hour incubation, CTG readout; read-out: IC50 BaF3 DTC
Description: as §2, §3, §4, §5

[5] = Pharmacokinetic experiment in mice; format: in vivo; settings: male, mouse; ICR mice, single oral administration (PO), 10 mg/kg, plasma
Description: The purpose of this trial is to study the pharmacokinetic behavior of some compounds of the present invention, and the administration method is: Single oral administration (PO) to ICR mice.
The compounds used in this trial are from the compounds in the specific examples of the present invention and the listed positive compounds.
ICR mice male N=9 original source: Shanghai Sippr-Bk Lab Animal Co., Ltd.
The compounds are weighed and dissolved in the corresponding solution (10% PG + 10% Solutol® + 80% pH3 citrate buffer). The mixture is then shaken well and sonicated to prepare a 1 mg/mL stock solution. Nine mice are orally administered at a dose of 10 mg/kg (or IV 2 mg/kg) after an overnight fast.
About 90 µL of blood is collected via the submandibular vein per time point, heparin sodium anticoagulant is added, the sample is placed on ice after collection, and plasma is centrifuged within 1 hour (centrifugation conditions: 8,000 rpm, 6 minutes, 2-8°C). The blood collection timepoints are 0, 0.25, 0.5, 1, 2, 4, 6, 8 and 24 h. The samples are stored in a -20°C refrigerator.
The plasma sample is 40 µL, 160 µL of ice-cold acetonitrile containing internal standard is added, vortexed for 3 minutes, and centrifuged at 11,000 rpm for 5 minutes. 100 µL of the supernatant is taken and added to 100 µL of water, 5 µL of the sample is taken and injected into LC/MS/MS for analysis.

SMILES | IC50 [1] [nM] | IC50 [2] [nM] | IC50 (A431 WT) [nM] | IC50 [3] [nM] | IC50 [4] [nM] | AUC(0-t) [5] [ng·h/mL] | Cmax [5] [ng/mL] | half-life [5] [min]
CN1CCC(C#Cc2nn3c4cc(ncc24)Nc2ccnc(n2)-c2cnn(C)c2OCC2(CCCC2)C3)CC1 [Example 1, 1'-methyl-3'-((1-methylpiperidin-4-yl)ethynyl)spiro(cyclopentane-1,6'-8-oxa-3-aza-4(6,1)-pyrazolo[4,3-c]pyridina-2(2,4)-pyrimidina-1(4,5)-pyrazolacyclooctaphane)] | 10.5 | 7.9 | 323 | 17.4 | 7.2 | 1030 | 88.2 | 210
CN1CCC(C#Cc2nn3c4cc(ncc24)Nc2ccnc(n2)-c2cnn(C)c2OCC2(CCCCC2)C3)CC1 [Example 3, 1'-methyl-3'-((1-methylpiperidin-4-yl)ethynyl)spiro(cyclohexane-1,6'-8-oxa-3-aza-4(6,1)-pyrazolo[4,3-c]pyridina-2(2,4)-pyrimidina-1(4,5)-pyrazolacyclooctaphane)] | 10.4 | 19.4 | 439 | 30.6 | 6.8 | 3920 | 307 | 336
Cn1ncc2c1OCC1(CCCC1)Cn1nc(N3CC[C@@H](NS(=O)(=O)C4CC4)C3)c3cnc(cc31)Nc1ccnc-2n1 [Example 58, (R)-N-(1-(1'-methylspiro(cyclopentane-1,6'-8-oxa-3-aza-4(6,1)-pyrazolo[4,3-c]pyridina-2(2,4)-pyrimidina-1(4,5) -pyrazolacyclooctaphane)-3' -yl)pyrrolidin-3-yl)cyclopro panesulfonamide] | 2.1 | 7.2 | 911 | 6.9 | 2.8 | – | – | –
CC#Cc1nn2c3cc(ncc13)Nc1ccnc(n1)-c1cnn(C)c1OCC[C@@H]2C [Example A1, (S)-1^1,5-dimethyl-4^3-(prop-1-yn-1-yl)-1^1H,4^1H-8-oxa-3-aza-4(6,1)-pyrazolo[4,3-c]py ridina-2(2,4)-pyrimidina-1(4,5)-pyrazolacyclooctaphane] | 262 | 40.9 | 2700 | 299 | 64.9 | – | – | –
C[C@H]1CCOc2c(cnn2C)-c2nccc(n2)Nc2cc3c(cn2)c(N2CC(CS(C)(=O)=O)C2)nn31 [Example A4, (S)-1^1,5-dimethyl-4^3-(3-((methylsulfonyl)methyl)azetidin-1-yl)-1^1H,4^1H-8-oxa-3-az a-4(6,1)-pyrazolo[4,3-c]pyri dina-2(2,4)-pyrimidina-1(4, 5)-pyrazolacyclooctaphane] | 186 | 176 | 2680 | 380 | 244 | – | – | –

The next lines start with the values.

IC50 [1] [nM] | IC50 [2] [nM] | IC50 (A431 WT) [nM] | IC50 [3] [nM] | IC50 [4] [nM] | AUC(0-t) [5] [ng·h/mL] | Cmax [5] [ng/mL] | half-life [5] [min] | SMILES
14.9 | 14.8 | 794 | 25.5 | 8.4 | 8870 | 1540 | 132 | Cn1ncc2c1OCC1(CCCC1)Cn1nc(N3CC[C@@H](C(C)(C)O)C3)c3cnc(cc31)Nc1ccnc-2n1 [Example 13, (R)-2-(1-(1'-methylspiro[cyclopentane-1,6'-8-oxa-3-aza-4(6,1)-pyrazolo[4,3-c]pyridina-2(2,4)-pyrimidina-1(4,5)-pyrazolacyclooctaphane]-3'-yl)pyrrolidin-3-yl)propan-2-ol]
3.6 | 2.8 | 1720 | 5 | 3.5 | 5320 | 882 | 144 | Cn1ncc2c1OCC1(CCCC1)Cn1nc(N3CC[C@H](CS(=O)(=O)C(F)(F)F)C3)c3cnc(cc31)Nc1ccnc-2n1 [Example 14, (S)-1'-methyl-3'-(3-(((trifluoromethyl)sulfonyl)methyl)pyrrolidin-1-yl)spiro[cyclopentane-1,6'-8-oxa-3-aza-4(6,1)-pyrazolo[4,3-c]pyridina-2(2,4)-pyrimidina-1(4,5)-pyrazolacyclooctaphane]]
4 | 1.6 | 622 | 9.6 | 1.8 | 4540 | 1400 | 39.6 | CCS(=O)(=O)C[C@@H]1CCN(c2nn3c4cc(ncc24)Nc2ccnc(n2)-c2cnn(C)c2OCC2(CCCC2)C3)C1 [Example 29, (R)-3' -(3-((ethylsulfonyl)methyl)pyrrolidin-1-yl)-1'-me thylspiro(cyclopentane-1,6' -8-oxa-3-aza-4(6,1)-pyrazolo[4,3-c]pyridina-2(2,4)-pyrimidina-1(4,5)-pyrazolacyclooctaphane)]
4.5 | 2.5 | 357 | 7.6 | 2 | – | – | – | Cn1ncc2c1OCC1(CCCC1)Cn1nc(N3CC[C@@H](NS(C)(=O)=O)C3)c3cnc(cc31)Nc1ccnc-2n1 [Example 48, (R)-N-(1-(1'-methylspiro(cyclopentane-1,6'-8-oxa-3-aza-4(6,1)-pyrazolo[4,3-c]pyridina-2(2,4)-pyrimidina-1(4,5)-pyrazolacyclooctaphane)-3'-yl)pyrrolidin-3-yl)metha nesulfonamide]
12 | 12.1 | 329 | 33.1 | 8.5 | – | – | – | COC(=O)N[C@H]1CCN(c2nn3c4cc(ncc24)Nc2ccnc(n2)-c2cnn(C)c2OCC2(CCCC2)C3)C1 [Example 55, Methyl (S)-(1-(1'-methylspiro(cyclopentane-1,6'-8-oxa-3-aza-4(6,1)-pyrazolo[4,3-c]pyridina-2(2,4)-pyrimidina-1(4,5)-pyrazolacyclooctaphane)-3'-yl)pyrrolidin-3-yl)carbamate]
7.9 | 5.3 | 251 | 22.8 | 3.1 | – | – | – | CCS(=O)(=O)N[C@H]1CCN(c2nn3c4cc(ncc24)Nc2ccnc(n2)-c2cnn(C)c2OCC2(CCCC2)C3)C1 [Example 57]
